In ChEMBL document CHEMBL4371049, “Semi-synthesis and anti-tumor activity of novel 25-OCH3-PPD derivatives incorporating aromatic moiety” (Bioorg Med Chem Lett, 2019) one finds IC50 data, which are given here for four compounds.

Holding throughout (format): functional, cell-based
For one test, the system named is MCF7. As to the kind of experiment: Antiproliferative activity against human MCF7 cells after 48 hrs by MTT assay. The conditions noted are these: MCF7, 48 h.
The test system of a further test is HepG2. As to the kind of experiment: Antiproliferative activity against human HepG2 cells after 48 hrs by MTT assay. The conditions noted are these: HepG2, 48 h.
In the next test the test system is BGC-823. Put plainly: Antiproliferative activity against human BGC823 cells after 48 hrs by MTT assay. To be noted: BGC-823, 48 h.
The subject of another test is PC-3. Put plainly: Antiproliferative activity against human PC3 cells after 48 hrs by MTT assay. The conditions noted are these: PC-3, 48 h. A general note: Formazan colour is commonly taken as a measure of viable cells.
A further test relates to DU-145. Put plainly: Antiproliferative activity against human DU145 cells after 48 hrs by MTT assay. To be noted: DU-145, 48 h.

Bounds are passed on as bounds.

Take `COC(C)(C)CCC[C@@](C)(O)[C@H]1CC[C@]2(C)[C@@H]1[C@H](OC(=O)c1cc([N+](=O)[O-])cc([N+](=O)[O-])c1)C[C@@H]1[C@@]3(C)CC[C@H](OC(=O)c4cc([N+](=O)[O-])cc([N+](=O)[O-])c4)C(C)(C)[C@@H]3CC[C@]12C`: the half-inhibitory concentration (IC50) (commonly the concentration that inhibits the measured activity by half) in the test with MCF7 was 38.2 µM; with HepG2, > 50 µM; in the test on BGC-823, > 50 µM; in the test on PC-3 it was > 50 µM; in the test with DU-145, 44.6 µM.
For `COC(C)(C)CCC[C@@](C)(O)[C@H]1CC[C@]2(C)[C@@H]1[C@H](OC(=O)c1ccc(I)cc1)C[C@@H]1[C@@]3(C)CC[C@H](OC(=O)c4ccc(I)cc4)C(C)(C)[C@@H]3CC[C@]12C`, the IC50 with MCF7, in the test on HepG2, in the test on BGC-823, in the test on PC-3 and with DU-145 was > 50 µM throughout.
On to `COC(C)(C)CCC[C@@](C)(O)[C@H]1CC[C@]2(C)[C@@H]1[C@H](OC(=O)c1cc([N+](=O)[O-])cc([N+](=O)[O-])c1)C[C@@H]1[C@@]3(C)CC[C@H](O)C(C)(C)[C@@H]3CC[C@]12C`, for which the IC50 in the test on MCF7, with HepG2, in the test on BGC-823, in the test with PC-3 and with DU-145 was > 50 µM throughout.
Turning to `COC(C)(C)CCC[C@@](C)(O)[C@H]1CC[C@]2(C)[C@@H]1[C@H](OC(=O)c1cc(I)ccc1Cl)C[C@@H]1[C@@]3(C)CC[C@H](OC(=O)c4cc(I)ccc4Cl)C(C)(C)[C@@H]3CC[C@]12C`, the half-inhibitory concentration (IC50) in the test with MCF7, with HepG2, in the test on BGC-823, with PC-3 and in the test with DU-145 was > 50 µM in each case.
